Results published in patent publication US20260176300A1, “N-ARYLPYRAZOLE NOD2 AGONISTS AS PROMOTERS OF IMMUNE CHECKPOINT INHIBITOR THERAPY” (THE SCRIPPS RESEARCH INSTITUTE, priority 2022, published 2026).
Entries after “also recorded” stand apart in the source; their conditions may differ.

How the values were obtained:
[1] = tested on: B16-F10 subcutaneous tumors; experiment: B16-F10 tumor growth assay with anti-PD-L1 co-treatment; type: in vivo, mice; details: for B16 tumor growth over time: wild-type C57BL/6 mice, 100 μg α-PD-L1 and 100 μg compound i.p. every other day
Procedure: FIG. 3(A-H). NOD2 agonist TT030 activates cytokine production in vitro and improves immune checkpoint inhibitor treatment of tumor growth in vivo. A-D, Measurements of secreted cytokine levels from human peripheral mononuclear blood cells (PMBCs) treated with the indicated compounds for 24 h without or with lipopolysaccharide (LPS). E, Structures of TT030 and its enantiomer (TT030-ent). F, Activation of NOD1- and NOD2-expressing HEK-293T cells with the indicated compounds. C12-iE-DAP is a lipophilic version of the NOD1 agonist, iE-DAP. G, Growth profiles of B16-F10 subcutaneous tumors in wild-type C57BL/6 mice treated with 100 μg α-PD-L1 and 100 μg of the indicated compounds every other day starting at Day 7. H, Growth profiles of B16-F10 subcutaneous tumors in wild-type or Nod2^−/− C57BL/6 mice treated with 100 μg α-PD-L1 and 100 μg TT030 every other day starting at Day 7. Cytokine secretion assays and NOD activation assays were analyzed using a one-way ANOVA with Dunnett's multiple comparisons test compared to the DMSO control. Longitudinal tumor growth assays were analyzed using linear mixed-effects model analysis on the log transformed data. ns=not significant, *P<0.05, **P<0.01, ***P<0.001, ****P<0.0001.
Animals. Specific pathogen-free, eight-week old male C57BL/6J (B6, 000664) and B6.129S1—Nod2^tm1Flv/J (Nod2^−/−, 005763 from Flavell Lab, Yale School of Medicine) were obtained from The Jackson Laboratory. Animals were housed in autoclaved caging with SaniChip bedding and enrichment for nest building on a 12-hour light/dark cycle. Animals were provided gamma-irradiated chow (LabDiet, 5053) and sterile drinking water ad libitum. Animal care and experiments were conducted in accordance with NIH guidelines and approved by the Institutional Animal Care and Use Committee at Scripps Research (Protocol AUP-21-095).
Tumor growth assay. B16-F10 cells were subcultured on the day prior to harvesting for tumor inoculation. On the day of injection, cells were harvested using TrypLE Express, washed and resuspended in cold PBS, and counted with a hemocytometer. Cells were then resuspended at 2×10^6 cells mL^−1 in PBS and mixed 1:1 with Matrigel matrix (Corning; growth factor reduced, 356231). Cell suspensions were kept on ice prior to injection. Animals were anesthetized using 3% isoflurane, and their right flank was shaved with hair clippers. Animals were then subcutaneously injected with 100 μL of the cell suspension on their mid-right flank (1×10^5 cells per injection). Once tumors were established at roughly 25-100 mm^3, tumor volume was measured every other day. Digital calipers were used to measure the length and width of each tumor, and tumor volume was calculated as length×[…], where width was the smaller of the two measurements. […]

[2] = tested on: intratumoral immune cells; experiment: Single cell transcriptomic profiling of intratumoral immune cells; type: in vivo, mice; details: tumors treated with anti-PD-L1 and compound
Description: N-arylpyrazole NOD2 agonist enhances intratumoral immune responses in vivo. The anti-tumor mechanism of action of the N-arylpyrazole NOD2 agonist in vivo was then further characterized. Infiltrating leukocytes from tumors treated with anti-PD-L1 and either TT030 or TT030-ent were harvested via cell sorting and subjected to single cell transcriptomic profiling (FIG. 4A and FIG. 8). After assignment of cell clusters using well-defined markers, the overall composition of intratumoral immune cells were examined by comparing the relative proportions of each cell cluster. […] In fact, overall expression of both Ifng and Gzmb were elevated in the TT030 sample compared to the enantiomer control (FIG. 9B), indicating heighted CD8^+ T cell activation and effector function. […] To better characterize changes to downstream signaling caused by TT030, differential gene expression and gene set enrichment analyses were performed.
FIG. 4(A-E). NOD2 agonist TT030 remodels intratumoral immune cell composition and elicits broad inflammatory signaling. A, Uniform manifold approximation and projection (UMAP) reduction of single intratumoral immune cells harvested from α-PD-L1 and TT030- and TT030-ent-treated tumors. B-C, Heatmap and quantification of the relative composition of intratumoral immune cell types divided by clusters. D, Quantification of the number of clusters that were enriched for individual Molecular Signature Database (MSigDB) hallmark gene sets. E, Bubble plot for enrichment of curated REACTOME gene sets involving NF-κB or interleukin 1 across cell clusters. For relative composition, absolute cell counts were analyzed by Pearson's chi-square test for count data with Holm's correction for multiple comparisons; exact P values are given. […] NOD activation assays were analyzed using a one-way ANOVA with Dunnett's multiple comparisons test compared to the DMSO control.
FIG. 9(A-B). […] QQ plots were analyzed using a two-sided Wilcoxon rank-sum test; exact P values are given.

| SMILES | B16 tumor growth over time [1] | Anti-tumor activity in Nod2−/− mice ([1]; Nod2−/− vs. wild-type C57BL/6 mice, 100 μg α-PD-L1 and 100 μg TT030 every other day) | Inflammatory, immune activation and metabolic pathways (IFNα, IFNγ response, NF-κB signaling), gene set enrichment [2] | Amount of T cell cluster expressing Cd8a, Ifng, Gzmb and Mki67 ([2]; vs. TT030-ent) | Overall expression of Ifng and Gzmb ([2]; vs. enantiomer control) |
| --- | --- | --- | --- | --- | --- |
| CC(=O)N[C@H]1C(O)O[C@H](CO)[C@@H](O)[C@@H]1O[C@H](C)C(=O)N[C@@H](C)C(=O)N[C@H](CCC(=O)O)C(N)=O (stereo partly drawn) [MDP, (4R)-4-((2S)-2-((2R)-2-(((3R,4R,5S,6R)-3-acetamido-2,5-dihydroxy-6-(hydroxymethyl)tetrahydro-2H-pyran-4-yl)oxy)propanamido)propanamido)-5-amino-5-oxopentanoic acid, reference compound] | significantly inhibited tumor growth | – | – | – | – |
| CCOC(=O)CC[C@@H](NC(=O)[C@@H](NC(=O)c1c(C)nn(-c2cc[nH]c(=O)c2)c1C)C(C)C)C(=O)OCC [TT030, Diethyl (3,5-dimethyl-1-(2-oxo-1,2-dihydropyridin-4-yl)-1H-pyrazole-4-carbonyl)-L-valyl-D-glutamate] | anti-tumor activity was also observed; also recorded: equivalent anti-tumor activity as MDP | loss in the anti-tumor activity | upregulated | significant increase | elevated |
